Results taken from patent US20250099633A1, “NTSR1-TARGETED RADIOPHARMACEUTICALS AND CHECKPOINT INHIBITOR COMBINATION THERAPY” (Fusion Pharmaceuticals Inc., priority 2022, published 2025).

Tests used:
[1] = tested on: mouse NTSR1 overexpressing tumors; experiment: [177Lu]-Compound A biodistribution in CT-26 syngeneic model; format: in vivo; conditions: 6-48 hours post injection
Experimental: Tumor uptake was maintained at 2.5-7% injected dose/g (ID/g) from 6-48 hours post injection.

CT-26-mNTSR1 tumor [2] = experiment: Efficacy study in immunocompetent CT-26-mNTSR1 tumor bearing-mice (tumor volume); format: in vivo, mouse; conditions: different doses; CT-26-mNTSR1 syngeneic mice with an intact immune system
CT-26-mNTSR1 tumor [3] = experiment: Combination with checkpoint inhibitors, relative tumor volume in the CT-26-mNTSR1 mouse model; format: in vivo
Experimental: An in vivo study was conducted to test the effect of [^225Ac]-Compound A (as described in Example 3) combined with checkpoint inhibitors, α-CTLA-4 and α-PD-1 antibodies, on relative tumor volume in the CT-26-mNTSR1 mouse model.

CT-26-mNTSR1 tumor [4] = experiment: Combination with checkpoint inhibitors, survival in the CT-26-mNTSR1 mouse model; format: in vivo; conditions: for Overall survival: intravenous
Experimental: An in vivo study was conducted to test the effect of [^225Ac]-Compound A (as described in Example 3) combined with checkpoint inhibitors, α-CTLA-4 and α-PD-1 antibodies, on survival in the CT-26-mNTSR1 mouse model.
Separately, an in vivo study was conducted to test the effect of [^225Ac]-Compound A (as
described in Example 4) at a different dosage in combination with checkpoint inhibitors, α-CTLA-4 and α-PD-1 antibodies, on survival in the CT-26-mNTSR1 mouse model.

| SMILES | Tumor uptake [1] | Efficacy in reducing tumor volume (CT-26-mNTSR1 tumor [2]) | Efficacy (tumor volume) (CT-26-mNTSR1 tumor [3]; 0.185 MBq/kg or 0.555 MBq/kg single-dose, intravenous, co-administered with 5 mg/kg of CTLA-4 or PD-1 or both) | Tumor regression, duration (CT-26-mNTSR1 tumor [3]; 0.555 MBg/kg dose, co-administration with both CTLA-4 and PD-1) | Tumor volume (CT-26-mNTSR1 tumor [3]; 0.555 MBg/kg dose, co-administration with both CTLA-4 and PD-1, compared to vehicle control and 225Ac-radiopharmaceutical alone groups) | Tumor volume (CT-26-mNTSR1 tumor [3]; 0.555 MBq/kg single-dose, intravenous, alone, relative to the vehicle control group) | Overall survival (CT-26-mNTSR1 tumor [4]; 0.185 MBq/kg single-dose, with 5 mg/kg α-CTLA-4 or α-PD-1 (or both), compared to vehicle control or [225Ac]-Compound A alone) | Overall survival (CT-26-mNTSR1 tumor [4]; 0.555 MBq/kg single-dose, with 5 mg/kg α-CTLA-4 or α-PD-1, compared to the vehicle and [225Ac]-Compound A single treatment group) | Survival (CT-26-mNTSR1 tumor [4]; 0.555 MBq/kg, co-administration with both α-CTLA-4 and α-PD-1, compared to vehicle control or [225Ac]-Compound A with or without either antibody) |
| --- | --- | --- | --- | --- | --- | --- | --- | --- | --- |
| COc1cccc(OC)c1-c1cc(C(=O)NC2(C(=O)O)C3CC4CC(C3)CC2C4)nn1-c1ccc(C(=O)N(C)CCCN(C)CCCN(C)C(=O)CN2CCN(CC(=O)O)CCN(CC(=O)O)CCN(CC(=O)O)CC2)cc1C(C)C (stereo not drawn) [[177Lu]-Compound A, metal not drawn] | 2.5-7 % injected dose/g (ID/g) |  |  |  |  |  |  |  |  |
| COc1cccc(OC)c1-c1cc(C(=O)NC2(C(=O)O)C3CC4CC(C3)CC2C4)nn1-c1ccc(C(=O)N(C)CCCN(C)CCCN(C)C(=O)CN2CCN(CC(=O)O)CCN(CC(=O)O)CCN(CC(=O)O)CC2)cc1C(C)C (stereo not drawn) [[^225Ac]-Compound A, metal not drawn] |  | enhanced efficacy in reducing tumor volume | increased efficacy was observed including tumor suppression | ≥ 40 days post-treatment | significantly smaller tumor volume | greater reductions in tumor volume | increased overall survival | increased overall survival | increased survival |
